Values after ≈ are worked out from the molar mass of the structure shown. Where two headings read alike, the source gives them in different places.
Experiments:
A. baumannii = experiment: MIC, broth microdilution, CDC/FDA Antibiotic Resistance Isolate Bank (Example 7, Tables 9, 13, 14); assay type: cell-based, Acinetobacter baumannii; settings: for MIC: read-out: MIC
P. aeruginosa = experiment: MIC, broth microdilution, CDC/FDA Antibiotic Resistance Isolate Bank (Example 7, Tables 10, 15); assay type: cell-based; settings: for MIC: Pseudomonas aeruginosa, read-out: MIC
[1] = 26 metallo-carbapenemase-producing P. aeruginosa strains, β-lactamase inhibitor µg/mL in parentheses
[2] = 96 strains of P. aeruginosa, β-lactamase inhibitor µg/mL in parentheses

With `CO/N=C(\C(=O)N[C@@H]1C(=O)N2C(C(=O)[O-])=C(C[n+]3ccn4ncccc43)CS[C@H]12)c1nsc(N)n1` [Cefozopran, cefozopran] the MIC (A. baumannii; Acinetobacter baumannii, A. baumannii KUB No. 5567, AR Bank #70, OXA-58, OXA-100) was 2 µg/mL (≈ 3.88 µM), the MIC (A. baumannii; Acinetobacter baumannii, A. baumannii KUB No. 5575, AR Bank #78, OXA-71) was greater than 64 µg/mL and the MIC (A. baumannii; Acinetobacter baumannii, A. baumannii KUB No. 5580, AR Bank #83, OXA-23, OXA-69, NDM-1) was greater than 64 µg/mL. The MIC (A. baumannii; Acinetobacter baumannii, A. baumannii KUB No. 5585, AR Bank #88, OXA-64, NDM-1) was greater than 64 µg/mL, the MIC (A. baumannii; Acinetobacter baumannii, A. baumannii KUB No. 5598, AR Bank #101, OXA-24, OXA-65) was 32 µg/mL (≈ 62.1 µM) and the MIC (A. baumannii; Acinetobacter baumannii, A. baumannii KUB No. 5599, AR Bank #102, OXA-66) was 8 µg/mL (≈ 15.5 µM). The MIC (A. baumannii; Acinetobacter baumannii, A. baumannii KUB No. 5706, AR Bank #273, OXA-23, OXA-66) was 64 µg/mL (≈ 124 µM), the MIC (A. baumannii; Acinetobacter baumannii, A. baumannii KUB No. 5707, AR Bank #274, OXA-66, OXA-72) was 16 µg/mL (≈ 31 µM) and the MIC (A. baumannii; Acinetobacter baumannii, A. baumannii KUB No. 5708, AR Bank #275, OXA-23, OXA-66) was 64 µg/mL (≈ 124 µM). It also gave an MIC (A. baumannii; Acinetobacter baumannii, A. baumannii KUB No. 5709, AR Bank #276, no carbapenemase genes (-)) greater than 64 µg/mL, an MIC (A. baumannii; Acinetobacter baumannii, A. baumannii KUB No. 5710, AR Bank #277, OXA-24, OXA-65) of 64 µg/mL (≈ 124 µM) and an MIC (A. baumannii; Acinetobacter baumannii, A. baumannii KUB No. 5711, AR Bank #278, OXA-23, OXA-66) of 64 µg/mL (≈ 124 µM). It also gave an MIC (A. baumannii; Acinetobacter baumannii, A. baumannii KUB No. 5712, AR Bank #279, OXA-23, OXA-66) of 64 µg/mL (≈ 124 µM), an MIC (A. baumannii; Acinetobacter baumannii, A. baumannii KUB No. 5713, AR Bank #280, OXA-66) of 8 µg/mL (≈ 15.5 µM) and an MIC (A. baumannii; Acinetobacter baumannii, A. baumannii KUB No. 5714, AR Bank #281, OXA-82) of 8 µg/mL (≈ 15.5 µM). It also gave an MIC (A. baumannii; Acinetobacter baumannii, A. baumannii KUB No. 5715, AR Bank #282, OXA-23, OXA-66) of 64 µg/mL (≈ 124 µM), an MIC (A. baumannii; Acinetobacter baumannii, A. baumannii KUB No. 5716, AR Bank #283, OXA-23, OXA-66) of 32 µg/mL (≈ 62.1 µM) and an MIC (A. baumannii; Acinetobacter baumannii, A. baumannii KUB No. 5717, AR Bank #284, OXA-24, OXA-65) of 16 µg/mL (≈ 31 µM). For the same compound, the MIC (A. baumannii; Acinetobacter baumannii, A. baumannii KUB No. 5718, AR Bank #285, OXA-24, OXA-65) was 32 µg/mL (≈ 62.1 µM), the MIC (A. baumannii; Acinetobacter baumannii, KUB No. 5719, AR Bank #286) was 32 µg/mL (≈ 62.1 µM) and the MIC (A. baumannii; Acinetobacter baumannii, KUB No. 5720, AR Bank #287) was 32 µg/mL (≈ 62.1 µM). For the same compound, the MIC (A. baumannii; Acinetobacter baumannii, KUB No. 5721, AR Bank #288) was 64 µg/mL (≈ 124 µM), the MIC (A. baumannii; Acinetobacter baumannii, KUB No. 5722, AR Bank #259) was 8 µg/mL (≈ 15.5 µM) and the MIC (A. baumannii; Acinetobacter baumannii, KUB No. 5723, AR Bank #290) was greater than 64 µg/mL. The MIC (A. baumannii; Acinetobacter baumannii, KUB No. 5724, AR Bank #291) was 32 µg/mL (≈ 62.1 µM), the MIC (A. baumannii; Acinetobacter baumannii, KUB No. 5725, AR Bank #292) was 16 µg/mL (≈ 31 µM) and the MIC (A. baumannii; Acinetobacter baumannii, KUB No. 5726, AR Bank #293) was 16 µg/mL (≈ 31 µM). For the same compound, the MIC (A. baumannii; Acinetobacter baumannii, KUB No. 5727, AR Bank #294) was greater than 64 µg/mL, the MIC (A. baumannii; Acinetobacter baumannii, KUB No. 5728, AR Bank #295) was 64 µg/mL (≈ 124 µM) and the MIC (A. baumannii; Acinetobacter baumannii, KUB No. 5729, AR Bank #296) was greater than 64 µg/mL. It also gave an MIC (A. baumannii; Acinetobacter baumannii, KUB No. 5730, AR Bank #297) of 64 µg/mL (≈ 124 µM), an MIC (A. baumannii; Acinetobacter baumannii, KUB No. 5731, AR Bank #298) of 16 µg/mL (≈ 31 µM) and an MIC (A. baumannii; Acinetobacter baumannii, KUB No. 5732, AR Bank #299) greater than 64 µg/mL. The MIC (A. baumannii; Acinetobacter baumannii, KUB No. 5733, AR Bank #300) was 8 µg/mL (≈ 15.5 µM), the MIC (A. baumannii; Acinetobacter baumannii, KUB No. 5734, AR Bank #301) was greater than 64 µg/mL and the MIC (A. baumannii; Acinetobacter baumannii, KUB No. 5735, AR Bank #302) was greater than 64 µg/mL. It also gave an MIC (A. baumannii; Acinetobacter baumannii, KUB No. 5736, AR Bank #303) of 32 µg/mL (≈ 62.1 µM), an MIC (A. baumannii; Acinetobacter baumannii, KUB No. 5737, AR Bank #304) of 8 µg/mL (≈ 15.5 µM) and an MIC (A. baumannii; Acinetobacter baumannii, KUB No. 5738, AR Bank #305) of 16 µg/mL (≈ 31 µM). The MIC (A. baumannii; Acinetobacter baumannii, KUB No. 5739, AR Bank #306) was 64 µg/mL (≈ 124 µM), the MIC (A. baumannii; Acinetobacter baumannii, KUB No. 5740, AR Bank #307) was 16 µg/mL (≈ 31 µM) and the MIC (A. baumannii; Acinetobacter baumannii, KUB No. 5741, AR Bank #308) was 4 µg/mL (≈ 7.76 µM). It also gave an MIC (A. baumannii; Acinetobacter baumannii, KUB No. 5742, AR Bank #309) of 64 µg/mL (≈ 124 µM), an MIC (A. baumannii; Acinetobacter baumannii, KUB No. 5743, AR Bank #310) of 64 µg/mL (≈ 124 µM) and an MIC (A. baumannii; Acinetobacter baumannii, KUB No. 5744, AR Bank #311) greater than 64 µg/mL. For the same compound, the MIC (A. baumannii; Acinetobacter baumannii, KUB No. 5745, AR Bank #312) was 16 µg/mL (≈ 31 µM), the MIC (A. baumannii; Acinetobacter baumannii, KUB No. 5746, AR Bank #313) was 64 µg/mL (≈ 124 µM) and the MIC50 (A. baumannii; Acinetobacter baumannii, 55 isolates of A. baumannii, read-out: MIC50) was 64 µg/mL (≈ 124 µM). The MIC80 (A. baumannii; Acinetobacter baumannii, 55 isolates of A. baumannii, read-out: MIC80) was greater than 64 µg/mL, the MIC90 (A. baumannii; Acinetobacter baumannii, 55 isolates of A. baumannii, read-out: MIC90) was greater than 64 µg/mL and the “Number of isolates at MIC >64 µg/mL” value (A. baumannii; MIC distribution, metallo-β-lactamase-producing A. baumannii, inhibitor µg/mL in parentheses) was 4. The “MIC against 26 metallo-carbapenemase-producing strains MIC50” value (P. aeruginosa; [1]) was >64 µg(mL), the “MIC against 26 metallo-carbapenemase-producing strains MIC90” value (P. aeruginosa; [1]) was >64 µg(mL) and the “MIC against 26 metallo-carbapenemase-producing strains MICrange” value (P. aeruginosa; [1]) was >64 µg(mL). For the same compound, the “MIC against 96 strains of P. aeruginosa MIC50” value (P. aeruginosa; [2]) was 32 µg(mL), the “MIC against 96 strains of P. aeruginosa MIC90” value (P. aeruginosa; [2]) was >64 µg(mL) and the MIC (P. aeruginosa; P. aeruginosa KUB No. 579, AR Bank # 447) was 0.5 µg/mL (≈ 0.97 µM). The MIC (P. aeruginosa; P. aeruginosa KUB No. 5083, AR Bank # 250) was greater than 64 µg/mL, the MIC (P. aeruginosa; P. aeruginosa KUB No. 5551, AR Bank # 54) was greater than 64 µg/mL and the MIC (P. aeruginosa; P. aeruginosa KUB No. 5561, AR Bank # 64) was greater than 64 µg/mL. It also gave an MIC (P. aeruginosa; P. aeruginosa KUB No. 5587, AR Bank # 90) greater than 64 µg/mL, an MIC (P. aeruginosa; P. aeruginosa KUB No. 5589, AR Bank # 92) greater than 64 µg/mL and an MIC (P. aeruginosa; P. aeruginosa KUB No. 5591, AR Bank # 94) of 64 µg/mL (≈ 124 µM). For the same compound, the MIC (P. aeruginosa; P. aeruginosa KUB No. 5592, AR Bank # 95) was 1 µg/mL (≈ 1.94 µM), the MIC (P. aeruginosa; P. aeruginosa KUB No. 5597, AR Bank # 100) was greater than 64 µg/mL and the MIC (P. aeruginosa; P. aeruginosa KUB No. 5600, AR Bank # 103) was greater than 64 µg/mL. The MIC (P. aeruginosa; P. aeruginosa KUB No. 5602, AR Bank # 105) was 16 µg/mL (≈ 31 µM), the MIC (P. aeruginosa; P. aeruginosa KUB No. 5605, AR Bank # 108) was greater than 64 µg/mL and the MIC (P. aeruginosa; P. aeruginosa KUB No. 5607, AR Bank # 110) was greater than 64 µg/mL. For the same compound, the MIC (P. aeruginosa; P. aeruginosa KUB No. 5608, AR Bank # 111) was greater than 64 µg/mL, the MIC (P. aeruginosa; P. aeruginosa KUB No. 5662, AR Bank # 229) was 16 µg/mL (≈ 31 µM) and the MIC (P. aeruginosa; P. aeruginosa KUB No. 5663, AR Bank # 230) was greater than 64 µg/mL. For the same compound, the MIC (P. aeruginosa; P. aeruginosa KUB No. 5664, AR Bank # 231) was greater than 64 µg/mL, the MIC (P. aeruginosa; P. aeruginosa KUB No. 5665, AR Bank # 232) was 4 µg/mL (≈ 7.76 µM) and the MIC (P. aeruginosa; P. aeruginosa KUB No. 5666, AR Bank # 23) was 2 µg/mL (≈ 3.88 µM). For the same compound, the MIC (P. aeruginosa; P. aeruginosa KUB No. 5667, AR Bank # 234) was 2 µg/mL (≈ 3.88 µM).

Reference: patent publication EP4635500A1, “THERAPEUTIC AGENT FOR BACTERIAL INFECTION” (Sumitomo Pharma Co., Ltd., priority 2022, dated 2024)
